System: IL-1β production in THP-1 cells (LPS and ATP; NLRP3 inflammasome activation)
Assay: THP-1 IL-1β production inhibitory test
Format: cell-based, human
Conditions: Homo sapiens, THP-1, 2 h, PMA-differentiated THP-1 cells, LPS 50 ng/mL and ATP 5 mM, 2 hours, ELISA; read-out: IC50 (nM), IL-1β production
Description: THP-1 IL-1β Production Inhibitory Test
To THP-1 cells, 50 ng/mL PMA (phorbol myristate acetate, SIGMA, P1585) was added at 37° C. and then the cells were cultured for 2 days. […] The cells were cultured at 37° C. for 15 minutes. LPS (lipopolysaccharide, SIMGA, L2880) and ATP (adenosine triphosphate, SIGMA, A2383) were added such that the final concentrations of them became 50 ng/mL and 5 mM, respectively. The cells were cultured at 37° C. for 2 hours. The supernatant was collected and the concentration of IL-1β was measured by ELISA (DuoSet ELISA human IL-1β, R&D Systems, DY201). The concentration of IL-1β was plotted against the logarithm of the concentration of the test compound, and the IC50 value was calculated by sigmoidal Emax model nonlinear regression analysis.

SMILES	IC50
Cc1nc(N[C@@H]2CCCC[C@H]2O)nnc1-c1ccc(C(F)(F)F)cc1O [Example 1, 2-(3-{[(1R,2R)-2-hydroxycyclohexyl]amino}-5-methyl-1,2,4-triazin-6-yl)-5-(trifluoromethyl)phenol]	7.6 nM
Cc1nc(NC[C@H](C)CO)nnc1-c1ccc(C(F)(F)F)cc1O [Example 2]	32 nM
Cc1nc(NCCCO)nnc1-c1ccc(C(F)(F)F)cc1O [Example 3]	69 nM
Cc1nc(NC[C@@H](C)O)nnc1-c1ccc(C(F)(F)F)cc1O [Example 4]	35 nM
Cc1nc(N[C@@H]2CCC[C@H]2O)nnc1-c1ccc(C(F)(F)F)cc1O [Example 5]	21 nM
Cc1nc(NC2CCCCC2)nnc1-c1ccc(C(F)(F)F)cc1O [Example 6]	26 nM
Cc1nc(N[C@H]2CCC(F)(F)C2)nnc1-c1ccc(C(F)(F)F)cc1O [Example 7]	28 nM
Cc1nc(NC2CC(C)(O)C2)nnc1-c1ccc(C(F)(F)F)cc1O (stereo not shown) [Example 8]	6.9 nM
Cc1nc(NCC(C)(C)CO)nnc1-c1ccc(C(F)(F)F)cc1O [Example 9]	59 nM
CO[C@H](C)CNc1nnc(-c2ccc(C(F)(F)F)cc2O)c(C)n1 [Example 10]	40 nM
Cc1nc(N[C@@H]2CCOC[C@H]2O)nnc1-c1ccc(C(F)(F)F)cc1O [Example 11]	15 nM
Cc1nc(NC2CCS(=O)(=O)CC2)nnc1-c1ccc(C(F)(F)F)cc1O [Example 12]	53 nM
Cc1nc(N[C@H]2C[C@](C)(O)C2)nnc1-c1ccc(C(F)(F)F)cc1O [Example 13]	260 nM
CC[C@@H](O)CNc1nnc(-c2ccc(C(F)(F)F)cc2O)c(C)n1 [Example 14]	62 nM
Cc1nc(NCC2(CO)CCC2)nnc1-c1ccc(C(F)(F)F)cc1O [Example 15]	100 nM
Cc1nc(N[C@@H]2COC[C@H]2O)nnc1-c1ccc(C(F)(F)F)cc1O [Example 16]	88 nM
Cc1nc(NCC2(O)CCC2)nnc1-c1ccc(C(F)(F)F)cc1O [Example 17]	66 nM
Cc1nc(NC[C@@H]2CCCO2)nnc1-c1ccc(C(F)(F)F)cc1O [Example 18]	88 nM
Cc1nc(N[C@@H]2CCCC[C@H]2O)nnc1-c1ccc(Cl)cc1O [Example 19]	7.4 nM
Cc1nc(N[C@H]2CCCC[C@H]2O)nnc1-c1ccc(C(F)(F)F)cc1O [Example 20]	34 nM
Cc1nc(N[C@@H]2COCC[C@H]2O)nnc1-c1ccc(C(F)(F)F)cc1O [Example 21]	290 nM

SMILES	IC50
Cc1nc(NC2CC3(CC(O)C3)C2)nnc1-c1ccc(C(F)(F)F)cc1O (stereo not shown) [Example 22]	13 nM
Cc1nc(NC2(CO)CCC2)nnc1-c1ccc(C(F)(F)F)cc1O [Example 23]	23 nM
Cc1nc(N[C@H]2[C@@H]3COC[C@@H]32)nnc1-c1ccc(C(F)(F)F)cc1O [Example 24]	40 nM
Cc1nc(N[C@@H]2CCCC[C@H]2O)nnc1-c1ccc(C#N)cc1O [Example 25]	77 nM
Cc1nc(N[C@H]2CC[C@H](O)CC2)nnc1-c1ccc(C(F)(F)F)cc1O [Example 26]	62 nM
Cc1nc(NCc2cccnn2)nnc1-c1ccc(C(F)(F)F)cc1O [Example 28]	630 nM
Cc1nc(NC2(CO)COC2)nnc1-c1ccc(C(F)(F)F)cc1O [Example 29]	84 nM
Cc1nc(N[C@@H]2CC[C@@H](O)C2)nnc1-c1ccc(C(F)(F)F)cc1O [Example 30]	18 nM
Cc1nc(N[C@@H]2CCOC[C@H]2O)nnc1-c1ccc(OC(F)(F)F)cc1O [Example 32]	10 nM
Cc1nc(NC(C)(C)CO)nnc1-c1ccc(C(F)(F)F)cc1O [Example 33]	150 nM
Cc1nc(NC2(CCO)CC2)nnc1-c1ccc(C(F)(F)F)cc1O [Example 34]	49 nM
Cc1nc(N[C@@H]2CC[C@H](O)C2)nnc1-c1ccc(C(F)(F)F)cc1O [Example 35]	50 nM
Cc1nc(N[C@@H]2CCCC[C@H]2O)nnc1-c1ccc(C(C)C)cc1O [Example 36]	17 nM
Cc1ccc(-c2nnc(N[C@@H]3CCCC[C@H]3O)nc2C)c(O)c1 [Example 37]	11 nM
Cc1nc(NC23CC(CO)(C2)C3)nnc1-c1ccc(C(F)(F)F)cc1O [Example 38]	11 nM
Cc1nc(N[C@@H]2C[C@H]3C[C@@H]2[C@@H](O)C3)nnc1-c1ccc(C(F)(F)F)cc1O [Example 39]	19 nM
Cc1nc(N[C@@H]2CCCC[C@@H]2O)nnc1-c1ccc(C(F)(F)F)cc1O [Example 40]	22 nM
Cc1nc(N[C@H]2CCCC[C@@H]2O)nnc1-c1ccc(C(F)(F)F)cc1O [Example 41]	310 nM
Cc1nc(N[C@@H]2CCCNC2=O)nnc1-c1ccc(C(F)(F)F)cc1O [Example 42]	28 nM
Cc1nc(N[C@@H]2CCNC2=O)nnc1-c1ccc(C(F)(F)F)cc1O [Example 43]	19 nM
Cc1nc(N[C@H]2CCNC2=O)nnc1-c1ccc(C(F)(F)F)cc1O [Example 44]	7 nM

SMILES	IC50
Cc1nc(N[C@H]2CCCNC2=O)nnc1-c1ccc(C(F)(F)F)cc1O [Example 45]	24 nM
Cc1nc(N[C@@H]2CCCCNC2=O)nnc1-c1ccc(C(F)(F)F)cc1O [Example 46]	30 nM
Cc1nc(N[C@@H]2CCCC[C@@]2(C)O)nnc1-c1ccc(C(F)(F)F)cc1O [Example 47]	8.8 nM
Cc1nc(N[C@@H]2CCCC(F)(F)[C@H]2O)nnc1-c1ccc(C(F)(F)F)cc1O [Example 48]	34 nM
Cc1nc(N[C@H]2C[C@@](C)(O)C2)nnc1-c1ccc(Cl)cc1O [Example 49]	14 nM
Cc1nc(N[C@H]2C[C@@](C)(O)C2)nnc1-c1ccc(OC(F)(F)F)cc1O [Example 50]	31 nM
Cc1ccc(-c2nnc(N[C@H]3C[C@@](C)(O)C3)nc2C)c(O)c1 [Example 51]	33 nM
Cc1ccc(-c2nnc(N[C@@H]3CCOC[C@H]3O)nc2C)c(O)c1 [Example 52]	21 nM
Cc1nc(N[C@@H]2CCCC[C@H]2O)nnc1-c1ccc(F)cc1O [Example 53]	63 nM
Cc1nc(N[C@@H]2CCCC[C@@]2(C)O)nnc1-c1ccc(Cl)cc1O [Example 54]	7.3 nM
Cc1ccc(-c2nnc(N[C@@H]3CCCC[C@@]3(C)O)nc2C)c(O)c1 [Example 55]	11 nM
Cc1nc(NC[C@@H](C)O)nnc1-c1ccc(C2CC2)cc1O [Example 56]	12 nM
Cc1nc(N[C@@H]2CCCC[C@@]2(C)O)nnc1-c1ccc(OC(F)(F)F)cc1O [Example 58]	9.3 nM
COc1ccc(-c2nnc(N[C@H]3C[C@@](C)(O)C3)nc2C)c(O)c1 [Example 60]	38 nM
COc1ccc(-c2nnc(N[C@@H]3CCOC[C@H]3O)nc2C)c(O)c1 [Example 61]	36 nM
Cc1nc(N[C@H]2CNC2=O)nnc1-c1ccc(C(F)(F)F)cc1O [Example 62]	28 nM
Cc1nc(N[C@@H]2CNC(=O)C2)nnc1-c1ccc(C(F)(F)F)cc1O [Example 63]	200 nM
Cc1nc(N[C@H]2CC[C@]2(C)O)nnc1-c1ccc(C(F)(F)F)cc1O [Example 64]	62 nM
Cc1nc(N[C@@H]2CNC2=O)nnc1-c1ccc(C(F)(F)F)cc1O [Example 65]	110 nM
Cc1nc(N[C@H]2CNC(=O)C2)nnc1-c1ccc(C(F)(F)F)cc1O [Example 66]	150 nM
Cc1nc(N[C@@H]2CCCC[C@H]2O)nnc1-c1ccc(C2CC2)cc1O [Example 67]	9.6 nM

SMILES	IC50
Cc1nc(NC[C@H](O)C(F)(F)F)nnc1-c1ccc(C(F)(F)F)cc1O [Example 68]	57 nM
Cc1nc(N[C@@H]2CCC(F)(F)C[C@H]2O)nnc1-c1ccc(C(F)(F)F)cc1O [Example 69]	30 nM
Cc1nc(N[C@H]2CCNC2=O)nnc1-c1ccc(Cl)cc1O [Example 70]	10 nM
Cc1ccc(-c2nnc(N[C@H]3CCNC3=O)nc2C)c(O)c1 [Example 71]	8.2 nM
Cc1nc(N[C@H]2CCNC2=O)nnc1-c1ccc(OC(F)(F)F)cc1O [Example 72]	8.3 nM
Cc1nc(N[C@H]2CCN(C)C2=O)nnc1-c1ccc(C(F)(F)F)cc1O [Example 74]	620 nM
Cc1nc(N[C@@H]2CCCCC[C@H]2O)nnc1-c1ccc(C(F)(F)F)cc1O [Example 76]	16 nM
Cc1nc(N[C@H]2C[C@@](C)(O)C2)nnc1-c1ccc(C2CC2)cc1O [Example 77]	67 nM
Cc1nc(N[C@@H]2CCOC[C@H]2O)nnc1-c1ccc(C2CC2)cc1O [Example 78]	27 nM
Cc1nc(N[C@@H]2CCCC[C@@H](O)C2)nnc1-c1ccc(C(F)(F)F)cc1O [Example 79]	14 nM
Cc1nc(N[C@@H]2CCOC[C@@]2(C)O)nnc1-c1ccc(C(F)(F)F)cc1O [Example 80]	12 nM
Cc1ccc(-c2nnc(N[C@@H]3CCC[C@H](O)C3)nc2C)c(O)c1 [Example 81]	42 nM
Cc1nc(N[C@@H]2CCC[C@H](O)C2)nnc1-c1ccc(Cl)cc1O [Example 82]	30 nM
Cc1nc(N[C@@H]2CCC[C@H](O)C2)nnc1-c1ccc(C2CC2)cc1O [Example 83]	32 nM
Cc1nc(N[C@@H]2CCC[C@H](O)C2)nnc1-c1ccc(OC(F)(F)F)cc1O [Example 84]	38 nM
Cc1nc(NCC(C)(C)O)nnc1-c1ccc(C(F)(F)F)cc1O [Example 85]	57 nM
CC(=O)NCCCCNc1nnc(-c2ccc(C(F)(F)F)cc2O)c(C)n1 [Example 86]	12 nM
Cc1nc(NCC(F)F)nnc1-c1ccc(C(F)(F)F)cc1O [Example 87]	130 nM
Cc1nc(Nc2cnn(CCO)c2)nnc1-c1ccc(C(F)(F)F)cc1O [Example 89]	230 nM

Reference: patent US12692241B2, “Substituted triazine compound” (Nico Therapeutics, Inc., priority 2021, dated 2026)
